Measurements taken from patent publication US12552768B2, “Pyridinylpyrazole derivative or pharmaceutically acceptable salt thereof and use thereof” (INDUSTRY-UNIVERSITY COOPERATION FOUNDATION HANYANG …, priority 2021, dated 2026).

Legend:
PLK1(h) = PLK1(h) (Homo sapiens, UniProt P53350); assay: PLK1 kinase inhibition, radiometric [33P-ATP] assay (IC50 Profiler Express); assay type: biochemical; conditions: for IC50: 10 μM ATP, 1 μM substrate (casein), 40 minutes at room temperature
Experimental: (§1) The analysis protocol was as follows. 1 μM substrate (casein), 10 μM ATP and PLK1(h) (5-10 mU) were incubated with 25 mM Tris pH 7.5, 0.02 mM EGTA, 0.66 mg/mL myelin basic protein, 10 mM Mg acetate and [33P-ATP] (specific activity of about 500 cpm/pmol, concentration as required) in a reaction solution with a final volume of 25 μL. The reaction was initiated by adding Mg-ATP mixture. After incubation at room temperature for 40 minutes, the reaction was stopped by adding 5 μL of a 3% phosphoric acid solution. 10 μL of the reaction solution was spotted on a P30 filter mat and washed 3 times for 5 minutes in 75 mM phosphoric acid and once in methanol prior to drying and scintillation counting. The 30 selected protein kinases were ABL1, AKT1, ALK, Aurora A, AXL, AXL (R499C), BRAF (V599E), BTK, c-MER, c-MET, c-Src, CAMKK1, CDK1/cyclin A, EGFR, ERK1, FGFR3, FYN, IGF1R, JAK3, KDR/VEGFR2, LCK, LYN, MEK1, PKA, PLK1, PLK2, PLK3, PLK4/SAK, SYK and TYRO3/SKY4.

[1] = system: 30 selected protein kinases; assay: Selected kinase profiling of 30 protein kinases (Reaction Biology Kinase Hot Spot service); assay type: biochemical; conditions: screening at 10 μM or 30 μM (FIG. 2)
Experimental: as §1

Sequence of PLK1(h) (P53350 whole entry): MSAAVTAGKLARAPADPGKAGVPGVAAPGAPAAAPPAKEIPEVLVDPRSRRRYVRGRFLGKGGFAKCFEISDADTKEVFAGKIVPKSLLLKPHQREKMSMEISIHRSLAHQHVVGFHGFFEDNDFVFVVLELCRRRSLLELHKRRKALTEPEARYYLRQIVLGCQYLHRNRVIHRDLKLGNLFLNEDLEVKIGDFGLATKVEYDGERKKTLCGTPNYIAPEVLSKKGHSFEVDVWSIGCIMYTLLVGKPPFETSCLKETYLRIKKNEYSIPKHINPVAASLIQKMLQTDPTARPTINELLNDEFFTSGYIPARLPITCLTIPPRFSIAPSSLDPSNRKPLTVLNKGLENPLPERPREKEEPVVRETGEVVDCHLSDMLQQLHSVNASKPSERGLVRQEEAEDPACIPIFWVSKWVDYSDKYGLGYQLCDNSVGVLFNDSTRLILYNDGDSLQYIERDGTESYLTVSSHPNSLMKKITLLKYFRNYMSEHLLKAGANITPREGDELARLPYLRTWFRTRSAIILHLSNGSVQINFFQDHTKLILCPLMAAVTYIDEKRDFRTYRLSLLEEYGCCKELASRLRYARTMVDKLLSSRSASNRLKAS

SMILES	IC50 (PLK1(h)) [nM]	inhibitory activity against PLK1 (in words) (PLK1(h))	selectivity for PLK1 over other protein kinases (in words) [1]
NC(=O)c1nn(-c2ccnc(Nc3ccccc3)c2)cc1OCc1ccccc1 [Compound 13a, 4-(benzyloxy)-1-(2-(phenylamino)pyridin-4-yl)-1H-pyrazole-3-carboxamide]	9890	–	–
NC(=O)c1nn(-c2ccnc(Nc3ccccc3)c2)cc1OCc1ccccc1C(F)(F)F [Compound 13b]	847	–	–
COc1ccccc1Nc1cc(-n2cc(OCc3ccccc3)c(C(N)=O)n2)ccn1 [Compound 14a]	1020	–	–
COc1ccccc1Nc1cc(-n2cc(OCc3ccccc3C(F)(F)F)c(C(N)=O)n2)ccn1 [Compound 14b]	1310	–	–
NC(=O)c1nn(-c2ccnc(Nc3ccccc3)c2)cc1OCc1ccc(CO)cc1Cl [Compound 15, 4-((2-chloro-4-(hydroxymethyl)benzyl)oxy)-1-(2-(phenylamino)pyridin-4-yl)-1H-pyrazole-3-carboxamide]	219	highest inhibitory activity against PLK1	superior effect of inhibiting PLK1 selectively as compared to other protein kinases
CN(C)Cc1ccc(COc2cn(-c3ccnc(Nc4ccccc4)c3)nc2C(N)=O)c(Cl)c1 [Compound 16, 4-((2-chloro-4-((dimethylamino)methyl)benzyl)oxy)-1-(2-(phenylamino)pyridin-4-yl)-1H-pyrazole-3-carboxamide]	1010	–	–
COc1ccccc1Nc1cc(-n2cc(OCc3ccc(CO)cc3Cl)c(C(N)=O)n2)ccn1 [Compound 17]	312	–	–
COc1ccccc1Nc1cc(-n2cc(OCc3ccc(CN(C)C)cc3Cl)c(C(N)=O)n2)ccn1 [Compound 18]	998	–	–
